# Laboratory results from ChEMBL document CHEMBL5038625, “Application of the dual-tail approach for the design and synthesis of novel Thiopyrimidine-Benzenesulfonamide hybrids as selective carbonic anhydrase inhibitors” (Eur J Med Chem, 2022).
# pKi: −log10 of the molar value.
# Columns and labels:
# Carbonic anhydrase 9 = Carbonic anhydrase 9 (Homo sapiens, UniProt Q16790); assay: Inhibition of human CA9 preincubated for 15 mins by phenol red dye based stopped flow CO2 hydration assay
# SF-539 = assay: Antiproliferative activity against human SF-539 cells assessed as cell growth inhibition at 10 uM incubated for 24 hrs by sulforhodamine B assay; format: functional; details: read-out: GI
# CCRF-CEM = assay: Antiproliferative activity against human CCRF-CEM cells assessed as cell growth inhibition at 10 uM incubated for 24 hrs by sulforhodamine B assay; format: functional; details: read-out: GI
# HL-60 = assay: Antiproliferative activity against human HL-60 cells assessed as cell growth inhibition at 10 uM incubated for 24 hrs by sulforhodamine B assay; format: functional; details: read-out: GI
# K562 = assay: Antiproliferative activity against human K562 cells assessed as cell growth inhibition at 10 uM incubated for 24 hrs by sulforhodamine B assay; format: functional; details: read-out: GI
# MOLT-4 = assay: Antiproliferative activity against human MOLT-4 cells assessed as cell growth inhibition at 10 uM incubated for 24 hrs by sulforhodamine B assay; format: functional; details: read-out: GI
# RPMI-8226 = assay: Antiproliferative activity against human RPMI-8226 cells assessed as cell growth inhibition at 10 uM incubated for 24 hrs by sulforhodamine B assay; format: functional; details: read-out: GI
# SR = assay: Antiproliferative activity against human SR cells assessed as cell growth inhibition at 10 uM incubated for 24 hrs by sulforhodamine B assay; format: functional; details: read-out: GI
# A549 = assay: Antiproliferative activity against human A549 cells assessed as cell growth inhibition at 10 uM incubated for 24 hrs by sulforhodamine B assay; format: functional; details: read-out: GI
# EKVX = assay: Antiproliferative activity against human EKVX cells assessed as cell growth inhibition at 10 uM incubated for 24 hrs by sulforhodamine B assay; format: functional; details: read-out: GI
# HOP-92 = assay: Antiproliferative activity against human HOP-92 cells assessed as cell growth inhibition at 10 uM incubated for 24 hrs by sulforhodamine B assay; format: functional; details: read-out: GI
# NCI-H226 = assay: Antiproliferative activity against human NCI-H226 cells assessed as cell growth inhibition at 10 uM incubated for 24 hrs by sulforhodamine B assay; format: functional; details: read-out: GI
# HCT-116 = assay: Antiproliferative activity against human HCT-116 cells assessed as cell growth inhibition at 10 uM incubated for 24 hrs by sulforhodamine B assay; format: functional; details: read-out: GI
# HCT-15 = assay: Antiproliferative activity against human HCT-15 cells assessed as cell growth inhibition at 10 uM incubated for 24 hrs by sulforhodamine B assay; format: functional; details: read-out: GI
# SF-295 = assay: Antiproliferative activity against human SF-295 cells assessed as cell growth inhibition at 10 uM incubated for 24 hrs by sulforhodamine B assay; format: functional; details: read-out: GI
# U-251 = assay: Antiproliferative activity against human U-251 cells assessed as cell growth inhibition at 10 uM incubated for 24 hrs by sulforhodamine B assay; format: functional; details: read-out: GI
# SK-MEL-5 = assay: Antiproliferative activity against human SK-MEL-5 cells assessed as cell growth inhibition at 10 uM incubated for 24 hrs by sulforhodamine B assay; format: functional; details: read-out: GI
# OVCAR-4 = assay: Antiproliferative activity against human OVCAR-4 cells assessed as cell growth inhibition at 10 uM incubated for 24 hrs by sulforhodamine B assay; format: functional; details: read-out: GI
# OVCAR-8 = assay: Antiproliferative activity against human OVCAR-8 cells assessed as cell growth inhibition at 10 uM incubated for 24 hrs by sulforhodamine B assay; format: functional; details: read-out: GI
# NCI/ADR-RES = assay: Antiproliferative activity against human NCI-ADR-RES cells assessed as cell growth inhibition at 10 uM incubated for 24 hrs by sulforhodamine B assay; format: functional; details: read-out: GI
# A498 = assay: Antiproliferative activity against human A498 cells assessed as cell growth inhibition at 10 uM incubated for 24 hrs by sulforhodamine B assay; format: functional; details: read-out: GI
# CAKI-1 = assay: Antiproliferative activity against human CAKI-1 cells assessed as cell growth inhibition at 10 uM incubated for 24 hrs by sulforhodamine B assay; format: functional; details: read-out: GI
# RXF 393 = assay: Antiproliferative activity against human RXF 393 cells assessed as cell growth inhibition at 10 uM incubated for 24 hrs by sulforhodamine B assay; format: functional; details: read-out: GI
# SN12C = assay: Antiproliferative activity against human SN12C cells assessed as cell growth inhibition at 10 uM incubated for 24 hrs by sulforhodamine B assay; format: functional; details: read-out: GI
# UO-31 = assay: Antiproliferative activity against human UO-31 cells assessed as cell growth inhibition at 10 uM incubated for 24 hrs by sulforhodamine B assay; format: functional; details: read-out: GI
# PC-3 = assay: Antiproliferative activity against human PC-3 cells assessed as cell growth inhibition at 10 uM incubated for 24 hrs by sulforhodamine B assay; format: functional; details: read-out: GI
# MCF7 = assay: Antiproliferative activity against human MCF7 cells assessed as cell growth inhibition at 10 uM incubated for 24 hrs by sulforhodamine B assay; format: functional; details: read-out: GI
# T47D = assay: Antiproliferative activity against human T47D cells assessed as cell growth inhibition at 10 uM incubated for 24 hrs by sulforhodamine B assay; format: functional; details: read-out: GI
# MDA-MB-231 = assay: Antiproliferative activity against human MDA-MB-231 cells assessed as cell growth inhibition at 10 uM incubated for 24 hrs by sulforhodamine B assay; format: functional; details: read-out: GI
smiles,measurement,setting,value
CC(C)c1nc(SCC(=O)c2ccccc2)nc(Nc2cccc(S(N)(=O)=O)c2)c1C#N,pKi,Carbonic anhydrase 9,7.03
same,inhibition of growth at 10 µM,SF-539,12.2%
same,inhibition of growth at 10 µM,CCRF-CEM,13.8%
same,inhibition of growth at 10 µM,HL-60,25.2%
same,inhibition of growth at 10 µM,K562,26.7%
same,inhibition of growth at 10 µM,MOLT-4,28.2%
same,inhibition of growth at 10 µM,RPMI-8226,17.9%
same,inhibition of growth at 10 µM,SR,19%
same,inhibition of growth at 10 µM,A549,5.5%
same,inhibition of growth at 10 µM,EKVX,5.72%
same,inhibition of growth at 10 µM,HOP-92,61%
same,inhibition of growth at 10 µM,NCI-H226,10%
same,inhibition of growth at 10 µM,HCT-116,5.73%
same,inhibition of growth at 10 µM,HCT-15,12.1%
same,inhibition of growth at 10 µM,SF-295,5.43%
same,inhibition of growth at 10 µM,U-251,5.45%
same,inhibition of growth at 10 µM,SK-MEL-5,7.01%
same,inhibition of growth at 10 µM,OVCAR-4,9.85%
same,inhibition of growth at 10 µM,OVCAR-8,5%
same,inhibition of growth at 10 µM,NCI/ADR-RES,5.69%
same,inhibition of growth at 10 µM,A498,10.7%
same,inhibition of growth at 10 µM,CAKI-1,10.8%
same,inhibition of growth at 10 µM,RXF 393,17.3%
same,inhibition of growth at 10 µM,SN12C,8.21%
same,inhibition of growth at 10 µM,UO-31,27.4%
same,inhibition of growth at 10 µM,PC-3,27.3%
same,inhibition of growth at 10 µM,MCF7,12.6%
same,inhibition of growth at 10 µM,T47D,17.9%
same,inhibition of growth at 10 µM,MDA-MB-231,14.9%
